# Patent US11786511B2, “Methods for increasing circulating mesenchymal stem cells” (University of Southern California, priority 2017, dated 2023)
# Entries after “also recorded” stand apart in the source; their conditions may differ.
# Key:
# Type in all cases: in vivo, C57BL/10ScSn-Dmd^mdx/J)
# [1] = tested on: circulating MSCs (CD45 negative, Sca-1, CD29 & CD105 positive); assay: Flow cytometry of peripheral blood for CD45 negative cells triply positive for Sca-1, CD29 & CD105, mdx mouse model; conditions: mdx mice, 8 mg/kg oral twice daily, 6 weeks, vs vehicle treated mdx and wild-type
# Method: (§1) In the mdx mouse model of DMD, 5 week-old wild-type (C57BL/10SnJ) and mdx (C57BL/10ScSn-Dmd^mdx/J) mice were treated for 6 weeks and necropsied. These mice were broken into 4 orally dosed groups: a wild-type group (n=5) dosed twice daily with vehicle, an mdx group (n=8) dosed twice daily with vehicle, an mdx group (n=8) dosed once daily with 8 mg/kg of Compound 7, and an mdx group (n=8) dosed twice daily with 8 mg/kg of Compound 7. The vehicle was a 1% β-cyclodextrin in ˜pH 3 citrate buffer and the treatment 1% β-cyclodextrin in ˜pH 3 citrate buffer with Compound 7. At necropsy, the femur bone marrow was isolated and peripheral blood was harvested. […] CFU-F colonies of ≥50 cells were counted after 8 days in culture. […]
# (§2) During the necropsy, the blood was collected by cardiac puncture with a 1 mL syringe fitted with a 22G needle, transferred into 2 ml K3E K3EDTA VACUETTE® tubes, and stored on ice. […] The cell solutions were counted with a Z1 Coulter Counter (Beckman Coulter) and resuspended at 5*10^6 cells/mL. […] The supernatant was then removed, re-suspend in 500 μL 10% neutral buffered formalin, covered with aluminum foil, and stored at 4° C. until analyzed. Samples were then read on a LSR II flow cytometer (BD Biosciences, San Jose, Calif.). Data was analyzed using FlowJo™ V 10.0.7r2.
# [2] = tested on: bone marrow MSCs (CD45 negative, Sca-1, CD29 & CD105 positive); assay: Flow cytometry of bone marrow for CD45 negative cells triply positive for Sca-1, CD29 & CD105, mdx mouse model; conditions: mdx mice, 8 mg/kg oral once or twice daily, 6 weeks, vs vehicle treated mdx
# Method: as §1, §2
# bone marrow MSCs = assay: Bone marrow CFU-F colony count after 6 weeks oral treatment in the mdx mouse model of DMD; conditions: mdx mice, vs vehicle treated mdx
# Method: In the mdx mouse model of DMD, 5 week-old wild-type (C57BL/10SnJ) and mdx (C57BL/10ScSn-Dmd^mdx/J) mice were treated for 6 weeks and necropsied. These mice were broken into 4 orally dosed groups: a wild-type group (n=5) dosed twice daily with vehicle, an mdx group (n=8) dosed twice daily with vehicle, an mdx group (n=8) dosed once daily with 8 mg/kg of Compound 7, and an mdx group (n=8) dosed twice daily with 8 mg/kg of Compound 7. The vehicle was a 1% β-cyclodextrin in ˜pH 3 citrate buffer and the treatment 1% β-cyclodextrin in ˜pH 3 citrate buffer with Compound 7. At necropsy, the femur bone marrow was isolated and peripheral blood was harvested. The bone marrow was cultured in Mesencult™ MSC Basal Medium (mouse) supplemented with Mesencult™ MSC Stimulatory Supplement (Stemcell Technologies). CFU-F colonies of ≥50 cells were counted after 8 days in culture.
# At necropsy, the femurs were also collected in a 1.5 mL microcentrifuge tube containing ˜800 μL of sterile Dulbecco's phosphate-buffered saline (DPBS) with 2% fetal bovine serum (FBS) and 2× Penicillin (Pen) and 2× Streptomycin (Strep) (DPBS/2% FBS/2× Pen/Strep) and stored on ice. […] The cell solutions were counted with a Z1 Coulter Counter (Beckman Coulter) and resuspended at 5*10^6 cells/mL. […] On day 8, the colonies of ≥50 were counted by light microscopy.
structure (smiles),measurement,setting,value
CCCCOC(=O)NS(=O)(=O)c1ccc(OC(F)(F)F)cc1-c1ccc(Cn2ccnc2)cn1 [Compound 7],"Percentage of CD45 negative cells triply positive for Sca-1, CD29 & CD105 in peripheral blood (circulating MSCs)",[1],significantly higher; also recorded: significant increase
same,"Percentage of CD45 negative cells triply positive for Sca-1, CD29 & CD105 in bone marrow",[2],restored the percentage of these triply positive cells to levels comparable to non-dystrophic controls; also recorded: significantly increased
same,"Bone marrow MSC, CFU-F counts (colonies of ≥50 cells after 8 days in culture)",bone marrow MSCs; 8 mg/kg oral once daily,significantly increased; also recorded: significant increase
same,"Bone marrow MSC, CFU-F counts (colonies of ≥50 cells after 8 days in culture)",bone marrow MSCs; 8 mg/kg oral twice daily,restoring levels comparable to the non-dystrophic controls; also recorded: significant increase
